Reference: PMC9916883, “Betaine- and L-Carnitine-Based Ionic Liquids as Solubilising and Stabilising Agents for the Formulation of Antimicrobial Eye Drops Containing Diacerein” (International Journal of Molecular Sciences, 2023)
In brackets after ≈: the same amount, converted by molar mass.

Assays:
P. aeruginosa ATCC 27853 [1] = assay: Killing assay; type: cell-based, Pseudomonas aeruginosa; details: 3 h incubation in 5% TSB; DIA 0.34 M, ILs 0.27 M
Description: To this end, the bacterial strains were grown in TSB until the exponential phase, and approximately 5 × 10^4 CFU/mL-contained in 10 μL-was added to 5 μL of TSB, 35 μL of water, and 50 μL of one of the following solutions corresponding to the eye drop compositions tested in vivo: Bet6 or Carn6 with 0.27 M or 0.34 M DIA, plain DIA (0.34 M) solution, or plain Bet6/plain Carn6, both at 0.27 M. All solutions were prepared in CB. The samples were incubated at 37 °C with shaking for 3 h. A sample containing 0.6% DMSO (corresponding to the highest concentration of DMSO tested) was used as a control. Following incubation, the samples were diluted 10-fold in LB and plated on tryptone soy agar (TSA, Oxoid) to determine the number of CFU. Bactericidal activity was defined as a reduction of at least 3 Log10 in the number of viable bacteria as compared to the inoculum.

P. aeruginosa ATCC 27853 [2] = assay: Biofilm inhibition assay (crystal violet); type: cell-based, Pseudomonas aeruginosa; details: any of the concentrations tested (3.12, 6.25, 12.5 μg/mL)
Description: (§1) After overnight growth in LB, cultures of P. aeruginosa ATCC 27853 and S. aureus W4 were diluted 1:100 in LB or in 50% tryptone soy broth (TSB, Oxoid) supplemented with 0.25% glucose (Sigma), respectively. The bacterial suspensions were dispensed into flat-bottomed polystyrene 96-well microplates (Corning Costar, Lowell, MA, USA) in the presence of sub-MIC concentrations of Rhe and DIA (3.12, 6.25, and 12.5 μg/mL). A sample containing 0.8 DMSO % (corresponding to the highest concentration of DMSO tested) was used as a control. The microplates were incubated statically at 37 °C for 24 h, and the biofilm biomass was estimated by CV (Sigma-Aldrich) staining assay, as previously described.

P. aeruginosa ATCC 27853 [3] = assay: MIC determination (microdilution); type: cell-based, Pseudomonas aeruginosa
Description: (§2) A clinical isolate of S. aureus (W4) and the reference strain of P. aeruginosa ATCC 27853 were used in the study. For the preparation of stock cultures, bacterial strains were grown in Luria–Bertani broth (LB, Oxoid, Basingstoke, Hampshire, UK) until the late-log phase, subdivided into aliquots, and kept frozen at −80 °C until use. Identification and susceptibility testing of the S. aureus W4 strain were performed using MALDI-TOF (Bruker Daltonics, Bremen, Germany) and the BD Phoenix susceptibility testing system (BD, Milan, Italy), respectively.
(§3) The susceptibility of the bacterial strains to each of the tested compounds was assessed in terms of MIC values according to the standard microdilution method (Clinical and Laboratory Standards Institute–CLSI, 2018), with some modifications. Briefly, the bacteria were grown in LB broth until the exponential growth phase and then diluted in the same medium to reach a final density of 5 × 10^6 CFU/mL. A volume of 10 μL of the bacterial suspensions was added to 90 μL of LB in a 96-well plate in the absence (viability control) or presence of the test compound at different concentrations.

S. aureus W4 = assay: Biofilm inhibition assay (crystal violet); type: cell-based, Staphylococcus aureus; details: any of the concentrations tested (3.12, 6.25, 12.5 μg/mL)
Description: as §1

[4] = Stabilisation of DIA against hydrolysis to Rhe under simulated physiological conditions; type: physicochemical; details: pH 7.4, 37 °C; for degradation of DIA / DIA degraded: 6 h
Description: The stabilising effect of Bet6 and Carn6 on DIA’s hydrolysis was investigated under simulated in vitro conditions. […] After equilibrating for 30 min at 25 °C, the samples were transferred to a thermostatic shaking bath at 37 °C, and their pH was rapidly brought to 7.4 by adding 10 N NaOH. At defined time intervals (30 min, 1 h, 2 h, 3 h, 4 h, 5 h, and 6 h), a 500 µL sampling was performed, and the hydrolysis was blocked by adding 2 µL of 37% HCl, bringing the pH back to 5. The amount of Rhe formed over time was evaluated spectrophotometrically. Degradation of DIA was expressed in mol% of Rhe formation. The stabilising capability was compared to that obtained with HP-β-CD by applying the protocol to DIA/HP-β-CD solutions in CB, with molar ratios of 1:3, 1:5, and 1:10.

[5] = tested on: BALB/3T3 clone A31 fibroblast cells; assay: Cytotoxicity screening (WST-1); type: cell-based, murine; details: Mus musculus, 4 h incubation, read-out: IC50 of cell viability
Description: BALB/3T3 clone A31 fibroblast cells were grown in Dulbecco’s Modified Eagle Medium (DMEM), supplemented with 2 mM L-glutamine, 1% penicillin/streptomycin, and 10% bovine calf serum. Cells were grown in a CO2 incubator (Heracell 150i series) at 37 °C and 5% CO2, with cells sub-cultured at 80–90% confluency. The cell monolayers were rinsed with PBS and treated with trypsin–EDTA to detach the cells before their resuspension in fresh media. A subconfluent monolayer of BALB/3T3 clone A31 fibroblast cells was trypsinised, centrifuged at 1000 rpm for 5 min, resuspended in growth medium, and counted.
A cytotoxicity screening was carried out for both ILs (range […]), as well as DIA and Rhe (0.5–200 mg/mL). Briefly, BALB/3T3 clone A31 fibroblast cells were seeded in each well of 96-well plates at a seeding density of 6 × 10^3 cells/well for 24 h, until 60–70% confluence was reached. After 24 h, the medium was then removed from each well and replaced with DMEM containing the samples.
After 4 h of incubation, the media were removed, replaced with fresh medium containing 10% WST-1 reagent solution, and maintained for 4 h at 37° C with 5% CO2. Afterwards, formazan dye absorbance was quantified at 450 nm with the reference wavelength at 655 nm by using a multilabel reader (BioTek 800/TS, Thermo Scientific).

[6] = tested on: S. aureus (clinical isolate W4); assay: MIC determination (microdilution); type: cell-based, Staphylococcus aureus
Description: as §2, §3

MIC (P. aeruginosa ATCC 27853 [3]; Pseudomonas aeruginosa, ATCC27853, planktonic cells, 24 h, 37 °C): > 50 µg/mL
degradation of DIA ([4]; 0.018 M Bet6): 39%
DIA degraded ([4]; 0.018 M Carn6 solution): 91%
degradation of DIA ([4]; 0.04 M Bet6): 73%
DIA degraded ([4]; 0.04 M Carn6 solution): 98%
DIA preserved for 6 h ([4]; 0.27 M Bet6 solution (nanoaggregates)): 71%
DIA preserved for 6 h ([4]; 0.35 M Bet6 solution (nanoaggregates)): 85%
DIA not hydrolysed after 6 h ([4]; Carn6 nanoaggregates present (0.27 M)): 26%
DIA not hydrolysed after 6 h ([4]; Carn6 nanoaggregates present (0.35 M)): 34%
MIC ([6]; Staphylococcus aureus, planktonic cells, 24 h, 37 °C): 50 µg/mL (≈ 136 µM)
Compound: CC(=O)Oc1cccc2c1C(=O)c1c(OC(C)=O)cc(C(=O)O)cc1C2=O [DIA, diacerein]
bactericidal effect (P. aeruginosa ATCC 27853 [1]): no evident bactericidal effect
biofilm formation (CV staining, OD 570 nm), difference vs control (P. aeruginosa ATCC 27853 [2]): not statistically significant
antibacterial effect (P. aeruginosa ATCC 27853 [3]; in words (discussion)): inactive
biofilm formation (CV staining, OD 570 nm) (S. aureus W4): no significant effects
IC50 [5]: 116 µg/mL (≈ 316 µM)
antibacterial effect ([6]; in words (discussion)): exert antibacterial effects
